Among the data in patent EP0595557A1, “New substituted azetidinones as anti-inflammatory and antidegenerative agents” (MERCK & CO. INC., priority 1992, dated 1994) are kinact/KI values, retold here.

For this test, the target named is T1, Human Polymorphonuclear Leukocyte Elastase (Homo sapiens, UniProt P08246).
T1 construct: Crude extract of human polymorphonuclear leukocytes (PMN) containing elastase activity; from tissue; host or cells: human polymorphonuclear leukocytes (crude extract)
T1 sequence (P08246 30-267): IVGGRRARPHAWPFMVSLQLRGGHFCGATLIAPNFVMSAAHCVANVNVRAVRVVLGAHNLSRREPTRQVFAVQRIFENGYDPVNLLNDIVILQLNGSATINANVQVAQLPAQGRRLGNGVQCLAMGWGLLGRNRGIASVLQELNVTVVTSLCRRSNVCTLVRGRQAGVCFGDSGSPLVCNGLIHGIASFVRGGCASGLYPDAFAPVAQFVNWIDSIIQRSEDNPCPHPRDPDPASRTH
In words: Enzyme assay for inhibition of human polymorphonuclear leukocyte elastase via hydrolysis of Boc-AAPAN or Boc-AAPVN. The following applies: pH 7.5, second order rate constant for inactivation of the enzyme, expressed to the nearest thousand, read-out: Kobs/[I]. Format: biochemical. Here is the method:
Enzyme Assays for the Inhibition of Human Polymorphonuclear Leukocyte Elastase Via Hydrolysis of N-t-Boc-alanyl-alanyl-prolylalanine-p-nitroanilide (Boc-AAPAN) or N-t-Boc-alanyl-prolylvaline-p-nitro-anilide (Boc-AAPVN) Reagent:
0.05M TES (N-tris[hydroxymethyl]methyl-2-mino-ethanesulfonic acid) Buffer, pH 7.5.
0.2 mM Boc-AAPAN or Boc-AAPVN.
To prepare substrate, the solid was first dissolved in 10.0 ml DMSO. Buffer at pH 7.5 was then added to a final volume of 100 ml.
Crude extract of human polymorphonuclear leukocytes (PMN) containing elastase activity.
Inhibitors (azetidinones) to be tested dissolved in DMSO just before use.
To 1.0 ml of 0.2 mM Boc-AAPAN in a cuvette, 0.01-0.1 ml of DMSO with or without inhibitor was added. After mixing, a measurement was taken at 410 mµ to detect any spontaneous hydrolysis due to presence of test compound. 0.05 Milliliters of PMN extract was then added and the ΔOD/min at 410 mµ was measured and recorded. Beckman model 35 spectrophotometer was used.
Results were expressed to the nearest thousand ^kobs/I which is the second order rate constant in per mole per second for inactivation of the enzyme.
The elastase activity in the crude PMN extract may vary from one preparation to another. A control of each new batch is run, and the volume added in the assay procedure is adjusted according to activity.
Regarding `CCC[C@@H](NC(=O)N1C(=O)C(CC)(CC)[C@@H]1Oc1ccc(CC(=O)OCC(C)(C)N(C)C)cc1)c1ccc(C)cc1` [Compound 37], the kinact/KI came to 2.1e+06 M⁻¹ s⁻¹.

On to `CCC[C@@H](NC(=O)N1C(=O)C(CC)(CC)[C@@H]1Oc1ccc(CC(=O)OCC(=O)O)cc1)c1ccc(C)cc1` [Compound 38], for which the kinact/KI amounted to 1.01e+06 M⁻¹ s⁻¹.

As for `CCC[C@@H](NC(=O)N1C(=O)C(CC)(CC)[C@@H]1Oc1ccc(CC(=O)OCCN(C)Cc2ccccc2)cc1)c1ccc(C)cc1` [Compound 39], the kinact/KI came to 751000 M⁻¹ s⁻¹.

`CCC[C@@H](NC(=O)N1C(=O)C(CC)(CC)[C@@H]1Oc1ccc(CC(=O)N(CCO)CCO)cc1)c1ccc(C)cc1` [Compound 40]: the kinact/KI was 1.24e+06 M⁻¹ s⁻¹.

For `CCC[C@@H](NC(=O)N1C(=O)C(CC)(CC)[C@@H]1Oc1ccc(CC(=O)N2CCN(C)CC2)cc1)c1ccc(C)cc1` [Compound 41], the kinact/KI turned out to be 974000 M⁻¹ s⁻¹.

As to `CCC[C@@H](NC(=O)N1C(=O)C(CC)(CC)[C@@H]1Oc1ccc(CC(=O)N2CCOCC2)cc1)c1ccc(C)cc1` [Compound 42], the kinact/KI was 1.09e+06 M⁻¹ s⁻¹.

Regarding `CCC[C@@H](NC(=O)N1C(=O)C(CC)(CC)[C@@H]1Oc1ccc(CC(=O)NCCN(C)C)cc1)c1ccc(C)cc1` [Compound 43], the kinact/KI was found to be 1.21e+06 M⁻¹ s⁻¹.

Consider `CCC[C@@H](NC(=O)N1C(=O)C(CC)(CC)[C@@H]1Oc1ccc(CC(=O)N(C)CCN(C)C)cc1)c1ccc(C)cc1` [Compound 44], for which the kinact/KI is 1.24e+06 M⁻¹ s⁻¹.

As to `CCC[C@@H](NC(=O)N1C(=O)C(CC)(CC)[C@@H]1Oc1ccc(CC(=O)NCCCN(C)C)cc1)c1ccc(C)cc1` [Compound 45], the kinact/KI is 1.12e+06 M⁻¹ s⁻¹.

For `CCC[C@@H](NC(=O)N1C(=O)C(CC)(CC)[C@@H]1Oc1ccc(CC(=O)NCCc2ccncc2)cc1)c1ccc(C)cc1` [Compound 46], the kinact/KI was 2.25e+06 M⁻¹ s⁻¹.

Regarding `CCC[C@@H](NC(=O)N1C(=O)C(CC)(CC)[C@@H]1Oc1ccc(CC(=O)NCC(=O)O)cc1)c1ccc(C)cc1` [Compound 47], the kinact/KI came out at 876000 M⁻¹ s⁻¹.

`CCC[C@@H](NC(=O)N1C(=O)C(CC)(CC)[C@@H]1Oc1ccc(CC(=O)NC(C)C(=O)O)cc1)c1ccc(C)cc1` (stereo partly shown) [Compound 48]: the kinact/KI stood at 676000 M⁻¹ s⁻¹.

Take `CCC[C@@H](NC(=O)N1C(=O)C(CC)(CC)[C@@H]1Oc1ccc(CC(=O)NCC(=O)N(CCO)CCO)cc1)c1ccc(C)cc1` [Compound 49]: the kinact/KI was found to be 1.3e+06 M⁻¹ s⁻¹.

As for `CCC[C@@H](NC(=O)N1C(=O)C(CC)(CC)[C@@H]1Oc1ccc(CC(=O)N(C)CC(=O)O)cc1)c1ccc(C)cc1` [Compound 50], the kinact/KI turned out to be 989000 M⁻¹ s⁻¹.

With `CCC[C@@H](NC(=O)N1C(=O)C(CC)(CC)[C@@H]1Oc1ccc(CC(=O)NC(C)C(=O)N(CCO)CCO)cc1)c1ccc(C)cc1` (stereo partly shown) [Compound 51], the kinact/KI was determined as 939000 M⁻¹ s⁻¹.

Regarding `CCC[C@@H](NC(=O)N1C(=O)C(CC)(CC)[C@@H]1Oc1ccc(CC(=O)N(C)CC(=O)N(CCO)CCO)cc1)c1ccc(C)cc1` [Compound 52], the kinact/KI came out at 273000 M⁻¹ s⁻¹.

For the compound `CCC[C@@H](NC(=O)N1C(=O)C(CC)(CC)[C@@H]1Oc1ccc(CC(=O)N(C)CCN2CCOCC2)cc1)c1ccc(C)cc1` [Compound 53], the kinact/KI came out at 2.51e+06 M⁻¹ s⁻¹.

With `CCC[C@@H](NC(=O)N1C(=O)C(CC)(CC)[C@@H]1Oc1ccc(CC(=O)N(C)CCN(CCOC)CCOC)cc1)c1ccc(C)cc1` [Compound 54], the kinact/KI came to 1.39e+06 M⁻¹ s⁻¹.

As for `CCC[C@@H](NC(=O)N1C(=O)C(CC)(CC)[C@@H]1Oc1ccc(CC(=O)N(C)CCN(CC)CC)cc1)c1ccc(C)cc1` [Compound 55], the kinact/KI came to 1.32e+06 M⁻¹ s⁻¹.

Consider `CCC[C@@H](NC(=O)N1C(=O)C(CC)(CC)[C@@H]1Oc1ccc(CC(=O)N(C)CCCN(C)C)cc1)c1ccc(C)cc1` [Compound 56], for which the kinact/KI came to 1.05e+06 M⁻¹ s⁻¹.

Consider `CCC[C@@H](NC(=O)N1C(=O)C(CC)(CC)[C@@H]1Oc1ccc(CC(=O)NCC(C)N(C)C)cc1)c1ccc(C)cc1` (stereo partly shown) [Compound 57], for which the kinact/KI stood at 1.34e+06 M⁻¹ s⁻¹.

As for `CCC[C@@H](NC(=O)N1C(=O)C(CC)(CC)[C@@H]1Oc1ccc(CC(=O)N(C)CCN(C(C)C)C(C)C)cc1)c1ccc(C)cc1` [Compound 58], the kinact/KI is 1.63e+06 M⁻¹ s⁻¹.

Turning to `CCC[C@@H](NC(=O)N1C(=O)C(CC)(CC)[C@@H]1Oc1ccc(CC(=O)N(CCC)CCC)cc1)c1ccc(C)cc1` [Compound 59], the kinact/KI was 1.14e+06 M⁻¹ s⁻¹.

Turning to `CCC[C@@H](NC(=O)N1C(=O)C(CC)(CC)[C@@H]1Oc1ccc(CC(=O)N(CC)CC)cc1)c1ccc(C)cc1` [Compound 60], the kinact/KI amounted to 1.08e+06 M⁻¹ s⁻¹.

With `CCC[C@@H](NC(=O)N1C(=O)C(CC)(CC)[C@@H]1Oc1ccc(CC(=O)Nc2cccc(Cl)c2)cc1)c1ccc(C)cc1` [Compound 61], the kinact/KI turned out to be 733000 M⁻¹ s⁻¹.

As to `CCC[C@@H](NC(=O)N1C(=O)C(CC)(CC)[C@@H]1Oc1ccc(CC(=O)Nc2cccc(OC)c2)cc1)c1ccc(C)cc1` [Compound 62], the kinact/KI came out at 1.62e+06 M⁻¹ s⁻¹.

Consider `CCC[C@@H](NC(=O)N1C(=O)C(CC)(CC)[C@@H]1Oc1ccc(CC(=O)N(C)CCCC(=O)O)cc1)c1ccc(C)cc1` [Compound 64], for which the kinact/KI was determined as 917000 M⁻¹ s⁻¹.

Take `CCC[C@@H](NC(=O)N1C(=O)C(CC)(CC)[C@@H]1Oc1ccc(CC(=O)N(C)CCCC(=O)NS(=O)(=O)c2ccccc2)cc1)c1ccc(C)cc1` [Compound 65]: the kinact/KI worked out at 1.34e+06 M⁻¹ s⁻¹.

With `CCC[C@@H](NC(=O)N1C(=O)C(CC)(CC)[C@@H]1Oc1ccc(CC(=O)N(C)CCCN(C)Cc2ccccc2)cc1)c1ccc(C)cc1` [Compound 66], the kinact/KI was 1.36e+06 M⁻¹ s⁻¹.

In the case of `CCC[C@@H](NC(=O)N1C(=O)C(CC)(CC)[C@@H]1Oc1ccc(CC(=O)N(C)C)cc1)c1ccc(C)cc1` [Compound 67], the kinact/KI was found to be 942000 M⁻¹ s⁻¹.

In the case of `CCC[C@@H](NC(=O)N1C(=O)C(CC)(CC)[C@@H]1Oc1ccc(CC(=O)N(C)Cc2ccccc2)cc1)c1ccc(C)cc1` [Compound 68], the kinact/KI stood at 1.9e+06 M⁻¹ s⁻¹.

Turning to `CCC[C@@H](NC(=O)N1C(=O)C(CC)(CC)[C@@H]1Oc1ccc(CC(=O)N(C)CCN(C)Cc2ccccc2)cc1)c1ccc(C)cc1` [Compound 69], the kinact/KI came out at 2.79e+06 M⁻¹ s⁻¹.

For the compound `CCC[C@@H](NC(=O)N1C(=O)C(CC)(CC)[C@@H]1Oc1ccc(CC(=O)NOCc2ccccc2)cc1)c1ccc(C)cc1` [Compound 70], the kinact/KI was 2.37e+06 M⁻¹ s⁻¹.

With `CCC[C@@H](NC(=O)N1C(=O)C(CC)(CC)[C@@H]1Oc1ccc(CC(=O)N(C)c2ccc(C(=O)O)cc2)cc1)c1ccc(C)cc1` [Compound 71], the kinact/KI worked out at 1.51e+06 M⁻¹ s⁻¹.

As for `CCC[C@@H](NC(=O)N1C(=O)C(CC)(CC)[C@@H]1Oc1ccc(CC(=O)N(C)c2ccc(C(=O)NS(=O)(=O)c3ccccc3)cc2)cc1)c1ccc(C)cc1` [Compound 72], the kinact/KI was found to be 3.28e+06 M⁻¹ s⁻¹.

For the compound `CCCC(NC(=O)N1C(=O)C(CC)(CC)C1Oc1ccc(C(=O)NCCN(C)C)cc1)c1ccc(C)cc1` (stereo not shown) [Compound 73, 2-[4-[[[2-(dimethylamino)ethyl]amino]carbonyl]phenoxy]-3,3-diethyl-N-[1-(4-methylphenyl)butyl]-4-oxo-1-azetidinecarboxamide], the kinact/KI was 968000 M⁻¹ s⁻¹.

Regarding `CCC[C@@H](NC(=O)N1C(=O)C(CC)(CC)[C@@H]1Oc1ccc(C(=O)NCC(=O)O)cc1)c1ccc(C)cc1` [Compound 74], the kinact/KI stood at 1.43e+06 M⁻¹ s⁻¹.

On to `CCC[C@@H](NC(=O)N1C(=O)C(CC)(CC)[C@@H]1Oc1ccc(C(=O)N(C)CCN(C)C)cc1)c1ccc(C)cc1` [Compound 75, [S-(R*,S*)]-2-[4-[[[2-(dimethylamino)ethyl]methylamino]carbonyl]phenoxy]-3,3-diethyl-N-[1-(4-methylphenyl]butyl]-4-oxo-1-azetidinecarboxamide], for which the kinact/KI worked out at 1.92e+06 M⁻¹ s⁻¹.

Consider `CCC[C@@H](NC(=O)N1C(=O)C(CC)(CC)[C@@H]1Oc1ccc(C(=O)N(CC)CCN(C)C)cc1)c1ccc(C)cc1` [Compound 76], for which the kinact/KI worked out at 1.44e+06 M⁻¹ s⁻¹.

Regarding `CCC[C@@H](NC(=O)N1C(=O)C(CC)(CC)[C@@H]1Oc1ccc(C(=O)NCCN(CC)CC)cc1)c1ccc(C)cc1` [Compound 77], the kinact/KI stood at 1.19e+06 M⁻¹ s⁻¹.

For `CCC[C@@H](NC(=O)N1C(=O)C(CC)(CC)[C@@H]1Oc1ccc(C(=O)NCCN2CCOCC2)cc1)c1ccc(C)cc1` [Compound 78], the kinact/KI was determined as 1.84e+06 M⁻¹ s⁻¹.

Turning to `CCC[C@@H](NC(=O)N1C(=O)C(CC)(CC)[C@@H]1Oc1ccc(C(=O)N(C)CCN2CCOCC2)cc1)c1ccc(C)cc1` [Compound 79], the kinact/KI amounted to 2.12e+06 M⁻¹ s⁻¹.

`CCC[C@@H](NC(=O)N1C(=O)C(CC)(CC)[C@@H]1Oc1ccc(C(=O)N(C)CCN(CCOC)CCOC)cc1)c1ccc(C)cc1` [Compound 80]: the kinact/KI stood at 2.08e+06 M⁻¹ s⁻¹.

As for `CCC[C@@H](NC(=O)N1C(=O)C(CC)(CC)[C@@H]1Oc1ccc(C(=O)N(C)CCN(CC)CC)cc1)c1ccc(C)cc1` [Compound 81], the kinact/KI was 2.19e+06 M⁻¹ s⁻¹.

Regarding `CCC[C@@H](NC(=O)N1C(=O)C(CC)(CC)[C@@H]1Oc1ccc(C(=O)N(CCN(C)C)c2ccccc2)cc1)c1ccc(C)cc1` [Compound 82], the kinact/KI is 2.5e+06 M⁻¹ s⁻¹.

Take `CCC[C@@H](NC(=O)N1C(=O)C(CC)(CC)[C@@H]1Oc1ccc(C(=O)N(C)CCCN(C)C)cc1)c1ccc(C)cc1` [Compound 83]: the kinact/KI turned out to be 1.8e+06 M⁻¹ s⁻¹.
